# Assay results reported in PubChem BioAssay AID743161 (Sanford-Burnham Center for Chemical Genomics, 2013).
# “And” between values parts separate entries of the source, which are not always exact repeats. Equal entries are not always repeated. The source made the active and inactive calls.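 How the source made its calls: active means compounds whose lipid-stain IC50 is at most a set limit, with nuclear-stain IC50 a set multiple higher; inactive means the rest.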
# System: H9c2 rat cardiomyoblasts, Nile Red TAG fluorescence, overnight
# Experiment: TAG accumulation blockers, Nile Red lipid stain – cell-based, H9c2 rat cardiomyoblasts, Nile Red fluorescence, primary readout, dose response (AID 743161)
row,SMILES,IC50
1,COCCN1Cc2cccc(C(=O)Nc3nc4ccccc4n3C)c2C1=O,> 50 µM (inactive)
2,COc1cc2c(cc1OC)C(C)N(C(=O)c1cc3c(C)cc(C)cc3[nH]1)CC2 (centres undefined),18.2 µM (inactive)
3,CN(C)CCCn1c(SCC(=O)Nc2nc(-c3cccc(Br)c3)cs2)nc2ccccc2c1=O,22.8 µM (inactive)
4,CCOC(=O)c1cc(-c2ccccc2)sc1NC(=O)C(C)N1C(=O)NC(C)(c2ccc(Cl)cc2)C1=O (centres undefined),8.38 µM
5,COCCN1Cc2cccc(C(=O)Nc3cccc(Cl)c3Cl)c2C1=O,> 50 µM (inactive)
6,CCCC(=O)Nc1nc2ccc(NC(=O)c3ccccc3F)cc2s1,13.5 µM
7,COc1cccc(-c2cc(C(=O)Nc3ccc(N(C)C(C)=O)cc3)c3cc(Br)ccc3n2)c1,10.4 µM
8,CC(C)CC(=O)Nc1cccc(-c2nc3ccccc3[nH]2)c1,> 50 µM (inactive)
9,Cc1ccc(Nc2nc(OC(C(F)(F)F)C(F)(F)F)nc(N3CCOCC3)n2)cc1,3.9 µM
10,Cc1ccccc1OCCNc1cc(N2CC(C)NC(C)C2)ccc1[N+](=O)[O-] (centres undefined),11.3 µM
11,CCCCN1Cc2cccc(C(=O)Nc3cccc(-c4nc5ccccc5[nH]4)c3)c2C1=O,0.982 µM
12,CC(=O)Nc1cccc(-c2nc3ccccc3[nH]2)c1,> 50 µM (inactive)
13,O=C(Nc1cccc2ncccc12)c1ccc(Cl)cc1,> 50 µM (inactive)
14,Cc1cccc2c(C(=O)N3CCN(c4ccccc4)CC3)cc(-c3ccncc3)nc12,4.25 µM
15,COCCN1Cc2cccc(C(=O)Nc3ccc(CN4CCOCC4)cc3)c2C1=O,> 50 µM (inactive)
16,COCCN1Cc2cccc(C(=O)Nc3cccnc3)c2C1=O,> 50 µM (inactive)
17,CCOCCN1Cc2cccc(C(=O)Nc3cccc(-c4nc5ccccc5[nH]4)c3)c2C1=O,1.18 µM
18,O=C(Nc1cccc(-c2nc3ccccc3[nH]2)c1)C1CCCC1,44.3 µM (inactive)
19,COCCN1Cc2cccc(C(=O)Nc3ccc(-c4nc5ccccc5[nH]4)cc3)c2C1=O,0.0525 µM
20,COCCN1Cc2cccc(C(=O)Nc3cccc(-c4nc5ccc(F)cc5[nH]4)c3)c2C1=O,1.27 µM
21,COCCN1Cc2cccc(C(=O)Nc3nc4ccccc4[nH]3)c2C1=O,> 50 µM (inactive)
22,Cc1ccccc1NC(=O)CSc1nc(Nc2ccccc2)nc(N2CCOCC2)n1,15.3 µM (inactive)
23,O=C(CSc1nc2ccc(Nc3nc(N4CCOCC4)nc(N4CCOCC4)n3)cc2s1)NCc1ccco1,6.77 µM

row,SMILES,IC50
1,Cc1cc(C)c2nc(-c3ccncc3)cc(C(=O)N3CCN(Cc4ccccc4Cl)CC3)c2c1,5.05 µM
2,COCCn1cnc2cccc(C(=O)Nc3cccc(-c4nc5ccccc5[nH]4)c3)c2c1=O,> 50 µM (inactive)
3,COCCN1Cc2cccc(C(=O)Nc3cccc(C(C)=O)c3)c2C1=O,17.5 µM (inactive)
4,O=C(Nc1cccc(-c2nc3ccccc3[nH]2)c1)c1cccc2c1C(=O)N(CCOc1ccccc1)C2,1.01 µM
5,CCCC(=O)Nc1nc2ccc(NC(=O)c3c(F)c(F)c(OC)c(F)c3F)cc2s1,8.2 µM
6,COCCN1Cc2cccc(C(=O)Nc3ccc(C)cc3)c2C1=O,19.3 µM (inactive)
7,COCCN1Cc2cccc(C(=O)Nc3ccc(S(=O)(=O)N4CCCCC4)cc3)c2C1=O,> 50 µM (inactive)
8,CCCN1Cc2cccc(C(=O)Nc3cccc(C(C)=O)c3)c2C1=O,> 50 µM (inactive)
9,O=C(CCC(=O)N1CCOc2ccc(Cl)cc21)NCCCN1CCC(Cc2ccccc2)CC1,12.6 µM
10,Cc1ccc(-c2nc(NC(=O)c3cc(C(C)(C)C)nn3C)sc2C)cc1Cl,4.26 µM
11,COCCN1Cc2cccc(C(=O)Nc3ccc(S(=O)(=O)N4CCOCC4)cc3)c2C1=O,> 50 µM (inactive)
12,COCCN1Cc2cccc(C(=O)Nc3cccc(-c4nc5ccc(C)cc5[nH]4)c3)c2C1=O,1.31 µM
13,CCCCSc1nc2ccc(Nc3nc(N4CCOCC4)nc(N4CCOCC4)n3)cc2s1,7.11 µM
14,COCCN1Cc2cccc(C(=O)Nc3cccc(-c4nc5ccccc5[nH]4)c3)c2C1=O,1.19 µM and 1.25 µM and 1.68 µM
15,CCOc1ccccc1NC(=O)c1cccc(NC(=O)c2ccco2)c1,12 µM
16,COc1ccc(CCN2Cc3cccc(C(=O)Nc4cccc(-c5nc6ccccc6[nH]5)c4)c3C2=O)cc1OC,1.1 µM
17,COc1cc(NC(=O)c2cc([N+](=O)[O-])ccc2NC(=O)CN2CCN(c3ccccn3)CC2)cc(OC)c1,8.11 µM
18,O=C(Nc1cccc(-c2nc3ccccc3[nH]2)c1)c1ccccc1,32.8 µM (inactive)
19,COCCN1Cc2cccc(C(=O)Nc3cccc(-c4nc5ccc(Cl)cc5[nH]4)c3)c2C1=O,1.42 µM
20,O=C1COc2ccc(C(=O)CSc3nc4ccccc4c(=O)n3-c3ccc(Cl)c(Cl)c3)cc2N1,14.9 µM
21,COCCN1Cc2cccc(C(=O)Nc3cccc(-c4nc5ccc(C(F)(F)F)cc5[nH]4)c3)c2C1=O,0.832 µM
22,COCCN1Cc2cccc(C(=O)Nc3cccc(C(=O)Nc4ccccc4)c3)c2C1=O,2.9 µM
23,CCOC(=O)c1cccc(NC(=O)c2cccc3c2C(=O)N(CCOC)C3)c1,> 50 µM (inactive)

row,SMILES,IC50
1,CCC(C)(C)NC(=O)C(c1ccc(C)cc1)N(Cc1ccco1)C(=O)CCC(=O)Nc1nccs1 (centres undefined),8.41 µM
2,CCOc1ccc(NC(=O)CN(C)C(=O)c2cc(-c3ccc(OC)cc3)nc3ccccc23)cc1OCC,15.3 µM (inactive)
3,Cc1ccc(-c2csc(NC(=O)CSc3nc4ccccc4c(=O)n3CCCN(C)C)n2)cc1,17.5 µM (inactive)
4,COCCCN1Cc2cccc(C(=O)Nc3cccc(-c4nc5ccccc5[nH]4)c3)c2C1=O,2.29 µM
5,CCN(CC)S(=O)(=O)c1ccc(NC(=O)c2cccc3c2C(=O)N(CCOC)C3)cc1,> 50 µM (inactive)
6,O=C(Nc1cccc(-c2nc3ccccc3[nH]2)c1)c1ccncc1,> 50 µM (inactive)
7,Cc1ccccc1NC(=O)CSc1nc2ccc(Nc3nc(N4CCOCC4)nc(N4CCOCC4)n3)cc2s1,6.86 µM
8,O=C(Nc1cccc(-c2nc3ccccc3[nH]2)c1)c1cccc2c1C(=O)N(CCc1ccccc1)C2,8.04 µM
9,CCC(C)(C)NC(=O)C(c1ccc(OC)cc1)N(Cc1cccs1)C(=O)CCC(=O)Nc1cc(C)on1 (centres undefined),5.88 µM
10,COc1ccc(-c2csc(NC(=O)c3ccc(OCC(=O)N4CCOCC4)c(OC)c3)n2)cc1,0.662 µM
11,CCCN1Cc2cccc(C(=O)Nc3ccc(-c4nc5ccccc5[nH]4)cc3)c2C1=O,> 50 µM (inactive)
12,COc1ccccc1CCN1Cc2cccc(C(=O)Nc3cccc(-c4nc5ccccc5[nH]4)c3)c2C1=O,1.07 µM
13,CCCN1Cc2cccc(C(=O)Nc3ccc(C)cc3)c2C1=O,> 50 µM (inactive)
14,COCCN1Cc2cccc(C(=O)Nc3cccc(C(=O)Nc4ccccc4OC)c3)c2C1=O,5.75 µM
15,COCCN1Cc2cccc(C(=O)Nc3cccc(Cl)c3)c2C1=O,> 50 µM (inactive)
16,O=C(Nc1cccc(-c2nc3ccccc3[nH]2)c1)c1cccc2c1C(=O)N(CC1CC1)C2,1.53 µM
17,CCN(CC)S(=O)(=O)c1ccc(N2CCOCC2)c(NC(=O)c2[nH]c(C)c(C(C)=O)c2C)c1,11.3 µM
18,CSCCCN1Cc2cccc(C(=O)Nc3cccc(-c4nc5ccccc5[nH]4)c3)c2C1=O,0.661 µM
19,O=C(Nc1cccc(-c2nc3ccccc3[nH]2)c1)c1cccc2c1C(=O)N(CCN1CCOCC1)C2,3.36 µM
20,CCn1c(SCC(=O)Nc2nc(-c3ccc(C)cc3)cs2)nnc1-c1ccccc1O,7.87 µM
21,O=C(CSc1nc2ccc(Nc3nc(N4CCOCC4)nc(N4CCOCC4)n3)cc2s1)Nc1ccccc1Cl,7.85 µM
22,O=[N+]([O-])c1ccc(Nc2nc(NC3CCCCC3)nc(N3CCCC3)n2)cc1,14 µM
23,CCOc1ccc(CCNC(=O)CN2CCN(Cc3ccccc3C)C2=O)cc1OCC,10.8 µM
